The record followed here is patent US20080200438A1, “Treatment of Autoimmune Diseases” (priority 2005, published 2008).

Assay [1] deals with acute experimental autoimmune encephalomyelitis (EAE). The assay can be described thus: Acute EAE model. In kind it is in vivo, Lewis rat. The following applies: for Prevention of disease symptoms in the acute EAE model: doses between 0.1 and 10 mg/kg/day, oral.
The test system of a further assay is chronic-relapsing EAE. Briefly: Chronic-relapsing EAE model. In kind it is in vivo, Lewis rat. The following applies: 0.3 mg/kg/day orally, day 16 to day 31. The source says:
Animal models: The monophasic model of acute experimental autoimmune encephalomyelitis (EAE) and the chronic relapsing form are considered to be instructive animal models for multiple sclerosis. EAE can be induced in susceptible animals by a single injection of CNS tissue or MBP emulsified in complete Freund's adjuvant into the base of the tail. A monophasic acute paralytic disease appears in susceptible rat strains, e.g., Lewis, Wistar rat, about 8-11 days post-sensitization. The symptomatic rats recover within the following 7 days, but in other species the attack is usually lethal. In the chronic relapsing disease models rats undergo one to three relapses following the acute disease bout. These relapses are usually from very mild to severe and are observed within 20-100 days after the acute bout.
Chronic-relapsing EAE is induced by injecting an emulsion of guinea pig spinal cord in complete Freund's adjuvant in the hind paws of Lewis rats. Six to ten rats per group are used and somatic symptoms are judged daily on a scale of 0-3. The number of diseased animals as well as the time of onset of the disease is recorded. […] The statistical significance between treated and untreated groups is analyzed on each day using ANOVA analysis of variance followed by Dunn's multiple comparisons. […]

The test system of the next assay is chronic EAE. Briefly: Chronic EAE model. Format: in vivo, DA rat. The protocol:
Induction of AEA in DA rat is induced as described by Lorentzen et al, 1995, J. Neuroimmunol.; 63(2):193-205 and Adelmann et al, 1995, J. Neuroimmunol.; 63(1):17-27. Briefly, rats are immunized with a mixture of DA rat brain and DA rat and bovine spinal cord homogenate supplemented with 0.02 μg/ml purified recombinant rat MOG protein. The mixture is homogenized and then mixed 1:1 with complete Freund's adjuvant containing 4 mg/ml M. tuberculosis H37RA(CFA). The resultant mixture is then homogenized using a Polytron PT3100 homogenizer (Kinematica, Lucerne, Switzerland). Rats are then injected subcutaneously at the dorsal root of tail with a single injection of 200 μl antigen/CFA. The resultant chronic disease is evaluated using numeric scale of progressive paralysis: 0, no paralysis; 1, loss of tail tonicity; 2, hindlimb weakening or ataxia; 3, hindlimb paralysis with or without urinary incontinence; 4, hindlimb and forelimb paralysis; 5, moribund or death. Clinical scores are evaluated on a daily basis, while body weight is determined every other day. […] Treatment of animals begins at the peak clinical disease on the 12th day and continues daily the 33rd day post-immunization (total 22 days). The test compound or vehicle (for the control groups) is administered orally daily.

Setting [2] is: 0.1 mg/kg p.o. daily days 0-13, female Lewis rats.
The mark [3] stands for this setting: 0.3 mg/kg p.o. daily days 0-13, female Lewis rats.
[4] abbreviates: 1 mg/kg p.o. daily days 0-13, female Lewis rats.

The structures appear in SMILES notation. “Also recorded” adds a separate entry of the source.

For the compound `NC(CO)(CO)CCc1ccc(Sc2cccc(OCc3ccccc3)c2)cc1Cl` [Compound A, 2-amino-2-[4-(3-benzyloxyphenylthio)-2-chlorophenyl]ethyl-propane-1,3-diol], in assay [1] (setting [2]), the “First symptoms on day” value was 9 days, the “Number of Animals with EAE/total Day 12” value is listed as 0/5 and the “Number of Animals with EAE/total Day 14” value is listed as 3/4. For the same compound, in assay [1] (setting [3]), the “First symptoms on day” value was determined as 14 days, the “Number of Animals with EAE/total Day 12” value is recorded as 0/5 and the “Number of Animals with EAE/total Day 14” value is 1/5. In assay [1] (setting [4]), the “First symptoms on day” value is over 14 days, the “Number of Animals with EAE/total Day 12” value is 0/5 and the “Number of Animals with EAE/total Day 14” value is on record as 0/5. In assay [1], the “Prevention of disease symptoms in the acute EAE model” value (“Prevention of disease symptoms” for short) is “lead to prevention of disease symptoms; also recorded: prevents disease symptoms”. The “Prevention of clinical relapses in the chronic relapsing EAE model” value in the assay with chronic-relapsing EAE was “prevents clinical relapses”. Also, the “Inhibition of chronic EAE” value in the assay on chronic EAE (0.3, 0.1 or 0.03 mg/kg/d orally, day 12 to day 33 post-immunization) was “effectively inhibits chronic EAE”. The “Clinical disease compared to vehicle group” value in the assay with chronic EAE (each dose (0.3, 0.1, 0.03 mg/kg/d orally), statistical analysis) is listed as “significant reduction in clinical disease”.

With `CC[C@](N)(CO)CCc1ccc(Sc2cccc(OCc3ccccc3)c2)cc1Cl` [Compound C, (R)-2-amino-4-[4-(3-benzyloxyphenylthio)-2-chlorophenyl]-2-ethylbutane-1-ol], in assay [1] (setting [4]), the “First symptoms on day” value was over 14 days, the “Number of Animals with EAE/total Day 12” value is listed as 0/5 and the “Number of Animals with EAE/total Day 14” value is 0/5. The “Prevention of disease symptoms” value in assay [1] was “lead to prevention of disease symptoms”.

For `C[C@](N)(CO)CCc1ccc(Sc2cccc(OCc3ccccc3)c2)cc1Cl` [Compound B, (R)-2-amino-4-[4-(3-benzyloxyphenylthio)-2-chlorophenyl]-2-methylbutane-1-ol], in assay [1] (setting [4]), the “First symptoms on day” value is over 14 days, the “Number of Animals with EAE/total Day 12” value is recorded as 0/5 and the “Number of Animals with EAE/total Day 14” value is reported as 0/5. Moreover, the “Prevention of disease symptoms” value in assay [1] is “lead to prevention of disease symptoms”.
